In US12545637B2, “Extrahepatic targeted cationic lipid compound with high efficiency and low toxicity and its composition” (BEIJING YOUCARE KECHUANG PHARMACEUTICAL TECHNOLOGY CO., LTD., priority 2023, dated 2026):

Assays:
293T cells [1] = test: Fluorescent detection of Fluc-mRNA (cell transfection efficiency of LNP formulations); type: cell-based; conditions: for RLU value, times that of ALC-0315: ratio vs ALC-0315; for RLU value, times that of HHMA: ratio vs HHMA; for RLU value, times that of Lipofectamine 3000: ratio vs Lipofectamine 3000; for RLU value, times that of YK-009: ratio vs YK-009; for RLU value, times that of YK-405: ratio vs YK-405; for RLU value, times that of YK-406: ratio vs YK-406; for RLU value, times that of YK-408: ratio vs YK-408; for RLU value, times that of YK-409: ratio vs YK-409; for RLU value, times that of YK-410: ratio vs YK-410; for cell transfection efficiency, times that of YK-412: ratio vs YK-412; for cell transfection efficiency, times that of YK-413: ratio vs YK-413; for cell transfection efficiency, times that of YK-414: ratio vs YK-414; for cell transfection efficiency, times that of YK-416: ratio vs YK-416; for cell transfection efficiency, times that of YK-419: ratio vs YK-419; for cell transfection efficiency, times that of YK-420: ratio vs YK-420; for cell transfection efficiency, times that of YK-421: ratio vs YK-421
[2] = Detection of encapsulation efficiency, drug loading concentration and total RNA concentration (RiboGreen); type: physicochemical; conditions: for Drug loading concentration / Encapsulation efficiency / Total RNA concentration: LNP formulation prepared from the cationic lipid; for encapsulation efficiency higher than ALC-0315: difference vs ALC-0315; for encapsulation efficiency higher than HIMA: difference vs HIMA (HHMA); for encapsulation efficiency higher than SM-102: difference vs SM-102; for encapsulation efficiency higher than YK-009: difference vs YK-009; for encapsulation efficiency higher than compound 21: difference vs compound 21; for encapsulation efficiency higher than compound 23: difference vs compound 23; for drug loading concentration, times that of ALC-0315 / total RNA concentration, times that of ALC-0315: ratio vs ALC-0315; for drug loading concentration, times that of HIMA / total RNA concentration, times that of HIMA: ratio vs HIMA (HHMA); for drug loading concentration, times that of SM-102 / total RNA concentration, times that of SM-102: ratio vs SM-102; for drug loading concentration, times that of YK-009 / total RNA concentration, times that of YK-009: ratio vs YK-009; for drug loading concentration, times that of compound 21 / total RNA concentration, times that of compound 21: ratio vs compound 21; for drug loading concentration, times that of compound 23 / total RNA concentration, times that of compound 23: ratio vs compound 23
Summary of the method: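 Samples were diluted in 1×TE to about […], combined with TE and 0.1% Triton X-100 buffers, and held at 37 °C for 10 minutes before dye addition.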

293T cells [3] = test: Fluorescent detection of Fluc-mRNA (cell transfection efficiency of LNP formulations); type: cell-based; conditions: for Relative light unit (RLU): LNP with 0.3 μg Fluc-mRNA, 96-well plate, 24 hours; for cell transfection efficiency, times that of YK-415: ratio vs YK-415; for cell transfection efficiency, times that of YK-417: ratio vs YK-417; for cell transfection efficiency, times that of YK-418: ratio vs YK-418; for cell transfection efficiency, times that of YK-424: ratio vs YK-424; for RLU value, times that of compound 21: ratio vs compound 21; for RLU value, times that of compound 23: ratio vs compound 23
293T cells [4] = test: Cell transfection test of LNP formulation of eGFP-mRNA (optimization of preparation conditions); type: cell-based; conditions: for transfection efficiency at different molar ratios of polymer-conjugated lipid DMG-PEG2000 to carrier: 0.5% to 15%; for transfection effect at different molar ratios of cationic lipid, neutral lipid, structured lipid and polymer-conjugated lipid: 75:5:15:5 to 25:5:65:5
Protocol: The cationic lipid compound YK-407 synthesized in Example 1 was dissolved in ethanol with DSPC (AVT (Shanghai) Pharmaceutical Technology Co., Ltd.), cholesterol (AVT (Shanghai) Pharmaceutical Technology Co., Ltd.) and DMG-PEG2000 according to a molar ratio of 49:10:39.5:1.5, respectively, to prepare an ethanol lipid solution. The ethanol lipid solution was quickly added to citrate buffer (pH=4-5) by ethanol injection method, and vortexed for 30s for later use. eGFP-mRNA was diluted in citrate buffer (pH=4-5) to give an aqueous mRNA solution. A certain volume of liposome solution and mRNA aqueous solution were used to prepare liposomes at weight ratios of total lipids to mRNA of 5:1, 10:1, 15:1, 20:1, 30:1 and 35:1, respectively. The mixtures were sonicated at 25° C. for 15 min (with an ultrasonic frequency of 40 kHz and an ultrasonic power of 800 W). The resulted liposomes were diluted to 10 times volume with PBS, and then ultrafiltered with a 300KDa ultrafiltration tube to remove ethanol. Then the volume was fixed to a certain volume with PBS to give an LNP formulation encapsulating eGFP-mRNA using cationic lipid YK-407/DSPC/cholesterol/DMG-PEG2000 (49:10:39.5:1.5 in molar percentage).
The LNP formulation encapsulating eGFP-mRNA was prepared according to the method in 1, wherein the molar ratios of cationic lipid YK-407 to neutral lipid DSPC were 1:1, 3:1, 3.5:1, 4:1, 4.5:1, 4.9:1, 10:1, 15:1 and 20:1.
The LNP formulation encapsulating eGFP-mRNA was prepared according to the method in 1, wherein the cationic lipid in the carrier was YK-407, and the molar ratios of the polymer-conjugated lipid DMG-PEG2000 to the carrier were 0.5%, 1.5%, 3.5%, 5%, 10% and 15%, respectively.
The LNP formulation encapsulating eGFP-mRNA was prepared according to the method in 1, wherein the molar ratios of cationic lipid YK-407, neutral lipid DSPC, structured lipid cholesterol and polymer-conjugated lipid DMG-PEG2000 were 75:5:15:5, 49:10:39.5:1.5, 45:10:43.5:1.5, 45:25:20:10, 40:10:48.5:1.5, 35:10:53.5:1.5 and 25:5:65:5, respectively.
Cell recovery and passage: 293T cells were recovered, cultured in a culture dish, and passaged to the required number of cells.
Seeding plate: The cells in the culture dish were digested and counted. Cells were spread in a 96-well plate at 10,000 cells per well and in a 12-well plate at 150,000 cells per well. Cells were cultured overnight until the cells adhered to the wall.
Cell transfection test: The LNP formulation containing 1.5 μg of eGFP-mRNA prepared in Example 2 (the cationic lipid in the carrier was YK-407) and the Lipofectamin 3000 formulation of eGFP-mRNA were added respectively to the cell culture medium of the 12-well plate, and further incubated for 24 hours. The transfection efficiency of different samples was then investigated according to the fluorescence intensity by observing with a fluorescence microscope.

CCCCCCCCC(CCCCCCCC)COC(=O)CCCCCN(CCCO)CCN(CCCO)CCCCCC(=O)OCC(CCCCCCCC)CCCCCCCC [YK-422, di(2-octyldecyl) 6,6′-(ethane-1,2-diyl-bis((3-hydroxypropyl)azanediyl))dihexanoate]
RLU value, times that of ALC-0315 (293T cells [1]): 2.94
RLU value, times that of HHMA (293T cells [1]): 3.09
RLU value, times that of Lipofectamine 3000 (293T cells [1]): 5.36
RLU value, times that of YK-009 (293T cells [1]): 1.25
RLU value, times that of YK-405 (293T cells [1]): 2.01
RLU value, times that of YK-406 (293T cells [1]): 82.21
RLU value, times that of YK-408 (293T cells [1]): 4.36
RLU value, times that of YK-409 (293T cells [1]): 9.60
RLU value, times that of YK-410 (293T cells [1]): 15.77
cell transfection efficiency, times that of YK-412 (293T cells [1]): 1.91
cell transfection efficiency, times that of YK-413 (293T cells [1]): 4.67
cell transfection efficiency, times that of YK-414 (293T cells [1]): 14.49
cell transfection efficiency, times that of YK-416 (293T cells [1]): 1.62
cell transfection efficiency, times that of YK-419 (293T cells [1]): 2.03
cell transfection efficiency, times that of YK-420 (293T cells [1]): 1.60
cell transfection efficiency, times that of YK-421 (293T cells [1]): 13.79
Drug loading concentration [2]: 45.05 µg/mL
Encapsulation efficiency [2]: 92.4%
Total RNA concentration [2]: 45.76 µg/mL
encapsulation efficiency higher than ALC-0315 [2]: 29.1%
encapsulation efficiency higher than HIMA [2]: 32.2%
encapsulation efficiency higher than SM-102 [2]: 29.5%
encapsulation efficiency higher than YK-009 [2]: 29.0%
encapsulation efficiency higher than compound 21 [2]: 34.4%
encapsulation efficiency higher than compound 23 [2]: 36.2%
drug loading concentration, times that of ALC-0315 [2]: 1.68
total RNA concentration, times that of ALC-0315 [2]: 1.21
drug loading concentration, times that of HIMA [2]: 1.38
total RNA concentration, times that of HIMA [2]: 1.26
drug loading concentration, times that of SM-102 [2]: 1.70
total RNA concentration, times that of SM-102 [2]: 1.27
drug loading concentration, times that of YK-009 [2]: 1.64
total RNA concentration, times that of YK-009 [2]: 1.19
drug loading concentration, times that of compound 21 [2]: 2.05
total RNA concentration, times that of compound 21 [2]: 1.58
drug loading concentration, times that of compound 23 [2]: 2.25
total RNA concentration, times that of compound 23 [2]: 1.47
Relative light unit (RLU) (293T cells [3]): 6432971 RLU
cell transfection efficiency, times that of YK-415 (293T cells [3]): 21.59
cell transfection efficiency, times that of YK-417 (293T cells [3]): 54.85
cell transfection efficiency, times that of YK-418 (293T cells [3]): 57.82
cell transfection efficiency, times that of YK-424 (293T cells [3]): 2.23
RLU value, times that of compound 21 (293T cells [3]): 4.26
RLU value, times that of compound 23 (293T cells [3]): 4.59
transfection efficiency at different molar ratios of polymer-conjugated lipid DMG-PEG2000 to carrier (293T cells [4]): same results
transfection effect at different molar ratios of cationic lipid, neutral lipid, structured lipid and polymer-conjugated lipid (293T cells [4]): same results

CCCCCCCCC(CCCCCCCC)COC(=O)CCCCCN(CCCO)CCCN(CCCO)CCCCCC(=O)OCC(CCCCCCCC)CCCCCCCC [YK-423, di(2-octyldecyl) 6,6′-(propan-1,3-diyl-bis((3-hydroxypropyl)azanediyl))dihexanoate]
RLU value, times that of ALC-0315 (293T cells [1]): 2.84
RLU value, times that of HHMA (293T cells [1]): 3.00
RLU value, times that of Lipofectamine 3000 (293T cells [1]): 5.19
RLU value, times that of YK-009 (293T cells [1]): 1.21
RLU value, times that of YK-405 (293T cells [1]): 1.95
RLU value, times that of YK-406 (293T cells [1]): 79.58
RLU value, times that of YK-408 (293T cells [1]): 4.22
RLU value, times that of YK-409 (293T cells [1]): 9.30
RLU value, times that of YK-410 (293T cells [1]): 15.27
cell transfection efficiency, times that of YK-412 (293T cells [1]): 1.85
cell transfection efficiency, times that of YK-413 (293T cells [1]): 4.52
cell transfection efficiency, times that of YK-414 (293T cells [1]): 14.02
cell transfection efficiency, times that of YK-416 (293T cells [1]): 1.57
cell transfection efficiency, times that of YK-419 (293T cells [1]): 1.97
cell transfection efficiency, times that of YK-420 (293T cells [1]): 1.55
cell transfection efficiency, times that of YK-421 (293T cells [1]): 13.35
Drug loading concentration [2]: 37.47 µg/mL
Encapsulation efficiency [2]: 89.7%
Total RNA concentration [2]: 41.00 µg/mL
encapsulation efficiency higher than ALC-0315 [2]: 26.4%
encapsulation efficiency higher than HIMA [2]: 29.5%
encapsulation efficiency higher than SM-102 [2]: 26.8%
encapsulation efficiency higher than YK-009 [2]: 26.3%
encapsulation efficiency higher than compound 21 [2]: 31.7%
encapsulation efficiency higher than compound 23 [2]: 33.5%
drug loading concentration, times that of ALC-0315 [2]: 1.39
total RNA concentration, times that of ALC-0315 [2]: 1.08
drug loading concentration, times that of HIMA [2]: 1.15
total RNA concentration, times that of HIMA [2]: 1.13
drug loading concentration, times that of SM-102 [2]: 1.41
total RNA concentration, times that of SM-102 [2]: 1.14
drug loading concentration, times that of YK-009 [2]: 1.36
total RNA concentration, times that of YK-009 [2]: 1.06
drug loading concentration, times that of compound 21 [2]: 1.71
total RNA concentration, times that of compound 21 [2]: 1.42
drug loading concentration, times that of compound 23 [2]: 1.87
total RNA concentration, times that of compound 23 [2]: 1.32
Relative light unit (RLU) (293T cells [3]): 6227115 RLU
cell transfection efficiency, times that of YK-415 (293T cells [3]): 20.89
cell transfection efficiency, times that of YK-417 (293T cells [3]): 53.09
cell transfection efficiency, times that of YK-418 (293T cells [3]): 55.97
cell transfection efficiency, times that of YK-424 (293T cells [3]): 2.16
RLU value, times that of compound 21 (293T cells [3]): 4.12
RLU value, times that of compound 23 (293T cells [3]): 4.44
transfection efficiency at different molar ratios of polymer-conjugated lipid DMG-PEG2000 to carrier (293T cells [4]): same results
transfection effect at different molar ratios of cationic lipid, neutral lipid, structured lipid and polymer-conjugated lipid (293T cells [4]): same results
